Reference: patent US20260265329A1, “POLYPEPTIDE AND DERIVATIVE THEREOF, COMPOSITION, AND USE THEREOF” (HANGZHOU SCIWIND BIOSCIENCES CO., LTD., priority 2023, published 2026)
Starred links: 1 amine or outer side, 2 acyl side, 3 side chain; linkers in the order of their positions; H or OH if unused. Non-standard residues stand in square brackets, D forms with d. Residues, ends and D or L forms follow the SMILES beside them. *: point of attachment. C20 diacid = O=C(O)CCCCCCCCCCCCCCCCCCC(=O)*; γGlu = O=C(O)[C@H](CCC(=O)[*:2])N[*:1]; βAsp = O=C(O)[C@H](CC(=O)[*:2])N[*:1]; Hyp = O=C(O)[C@@H]1C[C@@H](O)CN1; Trx = NC[C@H]1CC[C@H](C(=O)O)CC1; AEEA = NCCOCCOCC(=O)O; Inp = O=C(O)C1CCNCC1

Molecular target: T1, human amylin receptors (Homo sapiens, UniProt O60896+P30988)
T1 construct: host or cells: CHO-K1/Ga15/AMY3 cells, further stably transfected with a CRE-luciferase plasmid
T1 sequence (P30988 25-474): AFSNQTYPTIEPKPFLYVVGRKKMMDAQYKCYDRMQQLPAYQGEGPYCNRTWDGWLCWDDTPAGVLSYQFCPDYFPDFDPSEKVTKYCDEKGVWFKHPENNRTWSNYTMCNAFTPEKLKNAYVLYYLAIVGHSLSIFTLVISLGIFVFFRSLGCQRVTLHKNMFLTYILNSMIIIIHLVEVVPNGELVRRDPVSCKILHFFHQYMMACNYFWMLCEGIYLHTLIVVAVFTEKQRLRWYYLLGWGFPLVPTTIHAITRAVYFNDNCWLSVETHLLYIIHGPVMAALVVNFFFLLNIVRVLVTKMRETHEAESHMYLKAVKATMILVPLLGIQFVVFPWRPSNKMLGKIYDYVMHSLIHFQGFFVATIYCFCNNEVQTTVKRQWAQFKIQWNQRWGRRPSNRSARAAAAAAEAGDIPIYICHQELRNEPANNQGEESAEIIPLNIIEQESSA
T1 sequence (O60896 24-148 partner): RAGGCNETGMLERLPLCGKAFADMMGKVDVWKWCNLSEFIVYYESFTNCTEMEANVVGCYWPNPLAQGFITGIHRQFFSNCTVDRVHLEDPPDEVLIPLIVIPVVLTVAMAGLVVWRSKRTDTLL
Assay: Luciferase assay in stably transfected amylin receptor/CRE-luc CHO cell line
Format: cell-based
Conditions: for Relative activity: EC50 ratio of Cagrilintide to the compound, Cagrilintide 100%; for EC50: amylin receptor/CRE-luc CHO cells, 24 hours incubation, luminescence
Source text: The objective of this assay is to test the potency of derivatives of polypeptides of the present application on human amylin receptors in vitro using a luciferase assay. Using the standard protocol, CHO-K1/Ga15/AMY3 cells (purchased from GenScript, with the calcitonin receptor and the receptor activity modifying peptide (RAMP) constructed already) were transfected with a plasmid containing a luciferase expression cassette driven by multiple copies of cAMP response elements (CREs). The cells were cultured in an F12 medium containing 200 μg/mL Zeocin, 2 μg/mL puromycin, 100 μg/mL hygromycin, and 400 μg/mL G418 to afford a stably transfected amylin receptor/CRE-luc cell line. The lyophilized powder from Example 1 was dissolved in 20 mM phosphate buffer solution with a pH of 7.0, and diluted in a growth medium (F12 culture medium containing 10% FBS) to give a derivative sample with an initial concentration of 10 nM, which was then subjected to a 5-fold serial dilution in the growth medium to obtain seven samples with concentrations between […]. In each well of a white 96-well plate, 50 μL of the tested sample solution was added with a corresponding concentration. The stably transfected amylin receptor/CRE-luc CHO cells were resuspended in the growth medium at a certain density, and 50 μL of the cell suspension was added at a density of about 20000 cells per well to the white 96-well plate containing the tested sample solution. After incubation of 24 hours at 37° C. and 5% CO2, 100 μL of a Luciferase substrate was added to each well, incubated for 3 minutes, and finally was tested for luminescence on SpectraMax L (Molecular Devices) with the software SoftMax Pro 7.0.3 GxP.

CC[C@H](C)[C@H](NC(=O)[C@H](CC(=O)O)NC(=O)[C@H](CCCNC(=N)N)NC(=O)[C@H](CC(=O)O)NC(=O)[C@H](CCCNC(=N)N)NC(=O)[C@H](CC(=O)O)NC(=O)[C@@H](NC(=O)[C@H](Cc1ccccc1)NC(=O)[C@H](Cc1c[nH]cn1)NC(=O)[C@H](CCCNC(=N)N)NC(=O)[C@H](CC(C)C)NC(=O)[C@H](Cc1ccccc1)NC(=O)[C@H](CC(=O)O)NC(=O)[C@H](C)NC(=O)[C@H](CC(C)C)NC(=O)[C@H](CCCNC(=N)N)NC(=O)[C@H](CCC(N)=O)NC(=O)[C@@H](NC(=O)[C@H](C)NC(=O)[C@H](C)NC(=O)[C@@H](NC(=O)[C@H](CO)NC(=O)[C@H](CC(C)C)NC(=O)[C@H](CCC(N)=O)NC(=O)[C@H](CO)NC(=O)[C@H](C)NC(=O)COCCOCCNC(=O)COCCOCCNC(=O)C1CCN(C(=O)CCCCCCCCCCCCCCCCCCC(=O)O)CC1)[C@@H](C)O)[C@@H](C)O)[C@@H](C)O)C(=O)N[C@@H](CC(C)C)C(=O)N1CCC[C@H]1C(=O)N1CCC[C@H]1C(=O)N[C@H](C(=O)N[C@@H](CC(N)=O)C(=O)N[C@H](C(=O)NCC(=O)N[C@@H](CO)C(=O)N[C@@H](CC(N)=O)C(=O)N[C@H](C(=O)N1CCC[C@H]1C(N)=O)[C@@H](C)O)C(C)C)[C@@H](C)O [M21] ({C20 diacid-Inp-AEEA-AEEA}-ASQLSTAATQRLADFLRHFTDRDRDILPPTNVGSNTP-NH2)
Relative activity: 126%
EC50: 0.023 nM

CC[C@H](C)[C@H](NC(=O)[C@H](CC(=O)O)NC(=O)[C@H](CCCNC(=N)N)NC(=O)[C@H](CC(=O)O)NC(=O)[C@H](CCCNC(=N)N)NC(=O)[C@H](CC(=O)O)NC(=O)[C@@H](NC(=O)[C@H](Cc1ccccc1)NC(=O)[C@H](Cc1c[nH]cn1)NC(=O)[C@H](CCCNC(=N)N)NC(=O)[C@H](CC(C)C)NC(=O)[C@H](Cc1ccccc1)NC(=O)[C@H](CC(=O)O)NC(=O)[C@H](C)NC(=O)[C@H](CC(C)C)NC(=O)[C@H](CCCNC(=N)N)NC(=O)[C@H](CCC(N)=O)NC(=O)[C@@H](NC(=O)[C@H](C)NC(=O)[C@H](C)NC(=O)[C@@H](NC(=O)[C@H](CO)NC(=O)[C@H](CC(C)C)NC(=O)[C@H](CCC(N)=O)NC(=O)[C@H](CO)NC(=O)[C@H](C)NC(=O)COCCOCCNC(=O)COCCOCCNC(=O)[C@H]1CC[C@H](CNC(=O)CCCCCCCCCCCCCCCCCCC(=O)O)CC1)[C@@H](C)O)[C@@H](C)O)[C@@H](C)O)C(=O)N[C@@H](CC(C)C)C(=O)N1CCC[C@H]1C(=O)N1CCC[C@H]1C(=O)N[C@H](C(=O)N[C@@H](CC(N)=O)C(=O)N[C@H](C(=O)NCC(=O)N[C@@H](CO)C(=O)N[C@@H](CC(N)=O)C(=O)N[C@H](C(=O)N1CCC[C@H]1C(N)=O)[C@@H](C)O)C(C)C)[C@@H](C)O [M20] ({C20 diacid-Trx-AEEA-AEEA}-ASQLSTAATQRLADFLRHFTDRDRDILPPTNVGSNTP-NH2)
Relative activity: 171%

CC[C@H](C)[C@H](NC(=O)[C@@H]1CCCN1C(=O)[C@H](CCCCN)NC(=O)[C@H](CC(C)C)NC(=O)[C@H](CC(N)=O)NC(=O)[C@H](CC(N)=O)NC(=O)[C@H](CO)NC(=O)[C@H](CO)NC(=O)[C@H](Cc1c[nH]cn1)NC(=O)[C@H](CCCNC(=N)N)NC(=O)[C@H](CC(C)C)NC(=O)[C@H](Cc1ccccc1)NC(=O)[C@H](CC(=O)O)NC(=O)[C@H](C)NC(=O)[C@H](CC(C)C)NC(=O)[C@H](CCCNC(=N)N)NC(=O)[C@H](CCC(N)=O)NC(=O)[C@@H](NC(=O)[C@H](C)NC(=O)[C@H](C)NC(=O)[C@@H](NC(=O)[C@H](CO)NC(=O)[C@H](CC(C)C)NC(=O)[C@H](CCC(N)=O)NC(=O)[C@H](CO)NC(=O)[C@H](C)NC(=O)COCCOCCNC(=O)COCCOCCNC(=O)C[C@H](NC(=O)CCCCCCCCCCCCCCCCCCC(=O)O)C(=O)O)[C@@H](C)O)[C@@H](C)O)C(=O)N[C@@H](CC(C)C)C(=O)N1CCC[C@H]1C(=O)N1CCC[C@H]1C(=O)N[C@H](C(=O)N[C@@H](CC(N)=O)C(=O)N[C@H](C(=O)NCC(=O)N[C@@H](CO)C(=O)N[C@@H](CC(N)=O)C(=O)N[C@H](C(=O)N1C[C@H](O)C[C@H]1C(N)=O)[C@@H](C)O)C(C)C)[C@@H](C)O [M33] ({C20 diacid-βAsp-AEEA-AEEA}-ASQLSTAATQRLADFLRHSSNNLKPILPPTNVGSNT[Hyp]-NH2)
Relative activity: 37%
EC50: 0.145 nM

CC[C@H](C)[C@H](NC(=O)[C@H](CC(=O)O)NC(=O)[C@H](CCCNC(=N)N)NC(=O)[C@H](CC(=O)O)NC(=O)[C@H](CCCNC(=N)N)NC(=O)[C@H](CC(=O)O)NC(=O)[C@@H](NC(=O)[C@H](Cc1ccccc1)NC(=O)[C@H](Cc1c[nH]cn1)NC(=O)[C@H](CCCNC(=N)N)NC(=O)[C@H](CC(C)C)NC(=O)[C@H](Cc1ccccc1)NC(=O)[C@H](CC(=O)O)NC(=O)[C@H](C)NC(=O)[C@H](CC(C)C)NC(=O)[C@H](CCCNC(=N)N)NC(=O)[C@H](CCC(N)=O)NC(=O)[C@@H](NC(=O)[C@H](C)NC(=O)[C@H](C)NC(=O)[C@@H](NC(=O)[C@H](CO)NC(=O)[C@H](CC(C)C)NC(=O)[C@H](CCC(N)=O)NC(=O)[C@H](CO)NC(=O)[C@H](C)NC(=O)COCCOCCNC(=O)COCCOCCNC(=O)COCCOCCNC(=O)COCCOCCNC(=O)COCCOCCNC(=O)COCCOCCNC(=O)CC[C@H](NC(=O)CCCCCCCCCCCCCCCCCCC(=O)O)C(=O)O)[C@@H](C)O)[C@@H](C)O)[C@@H](C)O)C(=O)N[C@@H](CC(C)C)C(=O)N1CCC[C@H]1C(=O)N1CCC[C@H]1C(=O)N[C@H](C(=O)N[C@@H](CC(N)=O)C(=O)N[C@H](C(=O)NCC(=O)N[C@@H](CO)C(=O)N[C@@H](CC(N)=O)C(=O)N[C@H](C(=O)N1CCC[C@H]1C(N)=O)[C@@H](C)O)C(C)C)[C@@H](C)O [M25] ({C20 diacid-γGlu-AEEA-AEEA-AEEA-AEEA-AEEA-AEEA}-ASQLSTAATQRLADFLRHFTDRDRDILPPTNVGSNTP-NH2)
Relative activity: 25%

CC[C@H](C)[C@H](NC(=O)[C@H](CC(=O)O)NC(=O)[C@H](CCCNC(=N)N)NC(=O)[C@H](CC(=O)O)NC(=O)[C@H](CCCNC(=N)N)NC(=O)[C@H](CC(=O)O)NC(=O)[C@@H](NC(=O)[C@H](Cc1ccccc1)NC(=O)[C@H](Cc1c[nH]cn1)NC(=O)[C@H](CCCNC(=N)N)NC(=O)[C@H](CC(C)C)NC(=O)[C@H](Cc1ccccc1)NC(=O)[C@H](CC(=O)O)NC(=O)[C@H](C)NC(=O)[C@H](CC(C)C)NC(=O)[C@H](CCCNC(=N)N)NC(=O)[C@H](CCC(N)=O)NC(=O)[C@@H](NC(=O)[C@H](C)NC(=O)[C@H](C)NC(=O)[C@@H](NC(=O)[C@H](CO)NC(=O)[C@H](CC(C)C)NC(=O)[C@H](CCC(N)=O)NC(=O)[C@H](CO)NC(=O)[C@H](C)NC(=O)COCCOCCNC(=O)COCCOCCNC(=O)COCCOCCNC(=O)COCCOCCNC(=O)CC[C@H](NC(=O)CCCCCCCCCCCCCCCCCCC(=O)O)C(=O)O)[C@@H](C)O)[C@@H](C)O)[C@@H](C)O)C(=O)N[C@@H](CC(C)C)C(=O)N1CCC[C@H]1C(=O)N1CCC[C@H]1C(=O)N[C@H](C(=O)N[C@@H](CC(N)=O)C(=O)N[C@H](C(=O)NCC(=O)N[C@@H](CO)C(=O)N[C@@H](CC(N)=O)C(=O)N[C@H](C(=O)N1CCC[C@H]1C(N)=O)[C@@H](C)O)C(C)C)[C@@H](C)O [M24] ({C20 diacid-γGlu-AEEA-AEEA-AEEA-AEEA}-ASQLSTAATQRLADFLRHFTDRDRDILPPTNVGSNTP-NH2)
Relative activity: 47%
EC50: 0.066 nM
